Earlier results, collected in patent US7867523B2, “Pharmaceutical composition” (priority 2008, dated 2011).

Experiments:
influenza virus = conditions: administered six hours after infection and continued for twenty-four hours
[1] = acute and long-term, animals, oral
[2] = tested on: immune cell types present in the blood; conditions: one gram daily for two weeks, patients

Oc1ccc(C=Cc2cc(O)cc(O)c2)cc1 [resveratrol, Resveratrol]
antiviral effect (restricting ability of the virus to replicate) (influenza virus): substantial

Arabinogalactan
toxicity [1]: no evidence of toxicity

O=C1O[C@H]([C@@H](O)CO)C(O)=C1O [vitamin C, Ascorbic acid]
interferon-gama production by T cells [2]: significantly more | number of NK cells [2]: increased | number of T cells [2]: remained the same
